# Tested on: Normal Mice
# Assay: Hemoglobin increase in normal mice, oral QD, TIW, QW
# Format: in vivo, C57BL/6J mice
# Description: This experiment evaluated the effects of different dosing frequencies of the test compound Comp-1 at the same weekly dose on hemoglobin and various routine hematological parameters in male C57BL/6J mice.
# After acclimatization feeding, on Day 0, submandibular vein blood was collected from 92 male mice aged 6-8 weeks for routine hematological analysis. Based on the Day 0 Hb (hemoglobin) results, 80 mice were selected for use in this experiment and divided into groups as follows: Vehicle (QD, 5 mice), Comp-1 (4.5 mg/kg, QD, 5 mice), Comp-1 (10.5 mg/kg, TIW, 5 mice), Comp-1 (31.5 mg/kg, QW, 5 mice), Comp-1 (9 mg/kg, QD, 15 mice), Comp-1 (21 mg/kg, TIW, 15 mice), Comp-1 (63 mg/kg, QW, 15 mice), Comp-1 (15 mg/kg, QD, 5 mice), Comp-1 (35 mg/kg, TIW, 5 mice), and Comp-1 (105 mg/kg, QW, 5 mice). On Day 14 and Day 28, submandibular vein blood was collected for routine hematological analysis. Quantitative data results were analyzed statistically using one-way analysis of variance (ANOVA) between groups, followed by Dunnett's multiple comparison method. Two-tailed analysis was used for statistics, and the statistical significance level was set at P<0.05.
# [1] = 4.5 mg/kg, QD, total weekly dose 31.5 mg/kg
# [2] = 9.0 mg/kg, QD, total weekly dose 63.0 mg/kg
# [3] = 10.5 mg/kg, TIW, total weekly dose 31.5 mg/kg
# [4] = 15.0 mg/kg, QD, total weekly dose 105.0 mg/kg
# [5] = 21.0 mg/kg, TIW, total weekly dose 63.0 mg/kg
# [6] = 31.5 mg/kg, QW, total weekly dose 31.5 mg/kg
# [7] = 35.0 mg/kg, TIW, total weekly dose 105.0 mg/kg
# [8] = 63.0 mg/kg, QW, total weekly dose 63.0 mg/kg
# [9] = 105.0 mg/kg, QW, total weekly dose 105.0 mg/kg
compound,measurement,setting,value
"O=C(O)CNC(=O)C1=C(O)C2(CCCC2)n2c(ccc2-c2ccccc2)C1=O [Comp-1, (6′-hydroxy-8′-oxo-3′-phenyl-8′H-spiro[cyclopentane-1,5′-indolizine]-7′-carbonyl)glycine]",Hb Day 0,[1],15.2 ± 0.61 g/dL
same,Hb Day 14,[1],18.2 ± 0.52 g/dL
same,Hb Day 28,[1],19.7 ± 0.53 g/dL
same,Hb Day 0,[2],15.3 ± 0.51 g/dL
same,Hb Day 14,[2],20.6 ± 0.44 g/dL
same,Hb Day 28,[2],23.1 ± 0.80 g/dL
same,Hb Day 0,[3],15.3 ± 0.66 g/dL
same,Hb Day 14,[3],17.9 ± 0.54 g/dL
same,Hb Day 28,[3],19.2 ± 0.22 g/dL
same,Hb Day 0,[4],15.3 ± 0.48 g/dL
same,Hb Day 14,[4],20.1 ± 0.54 g/dL
same,Hb Day 28,[4],22.8 ± 0.29 g/dL
same,Hb Day 0,[5],15.3 ± 0.49 g/dL
same,Hb Day 14,[5],19.7 ± 0.77 g/dL
same,Hb Day 28,[5],22.0 ± 0.11 g/dL
same,Hb Day 0,[6],15.3 ± 0.48 g/dL
same,Hb Day 14,[6],16.7 ± 0.40 g/dL
same,Hb Day 28,[6],17.2 ± 0.52 g/dL
same,Hb Day 0,[7],15.3 ± 0.44 g/dL
same,Hb Day 14,[7],18.9 ± 0.11 g/dL
same,Hb Day 28,[7],22.4 ± 0.57 g/dL
same,Hb Day 0,[8],15.3 ± 0.51 g/dL
same,Hb Day 14,[8],17.4 ± 0.62 g/dL
same,Hb Day 28,[8],18.5 ± 0.74 g/dL
same,Hb Day 0,[9],15.3 ± 0.50 g/dL
same,Hb Day 14,[9],19.0 ± 0.40 g/dL
same,Hb Day 28,[9],20.0 ± 0.48 g/dL
same,mean hemoglobin values vs Vehicle control group,"Day 14 and Day 28, all groups receiving Comp-1, P<0.001",significantly different

# Source: patent US20260199305A1, “LONG-ACTING ORAL PHARMACEUTICAL COMPRISING HYPOXIA-INDUCIBLE FACTOR PROLYL HYDROLASE INHIBITOR AND USE THEREOF” (Kind Pharmaceutical, priority 2023, published 2026)
